Patent US6423854B1, “Aminophenol derivatives and their use in cosmetics” (L'Oreal, priority 1997, dated 2002)

Tested on: co-culture of keratinocytes and melanocytes
Assay: Inhibition of melanogenesis (depigmenting activity) in a co-culture of keratinocytes and melanocytes
Format: cell-based
Conditions: for Class (maximum depigmenting activity): inhibition of melanogenesis relative to control; for IC50: co-culture of keratinocytes and melanocytes, read-out: IC50 (concentration for which a 50% inhibition of melanogenesis is observed)
Procedure: This test corresponds to the one described in patent FR 2,734,825 filed by the Applicant, as well as in the article by R. Schmidt, P. Krien and M. Régnier, Anal. Biochem., 235(2), 113-18, (1996). This test is thus carried out on a co-culture of keratinocytes and melanocytes.
For each test compound, the IC50 value, which corresponds to the micromolar (μM) concentration for which a 50% inhibition of melanogenesis is observed, is determined.
Moreover, each of these compounds is classed as regards their maximum depigmenting activity:
Class 1: 10 to 30% inhibition of melanogenesis relative to the control (same experiment without test compound);
Class 2: 30 to 60% inhibition of melanogenesis relative to the control (same experiment without test compound);
Class 3: 60 to 100% inhibition of melanogenesis relative to the control (same experiment without test compound).

| Structure (SMILES) | Class (maximum depigmenting activity) (1 μM) | IC50 [µM] | Class (maximum depigmenting activity) (200 μM) | Class (maximum depigmenting activity) (500 μM) |
| --- | --- | --- | --- | --- |
| CCOC(=O)Nc1ccc(O)cc1 [Compound of Example 1, N-Ethyloxycarbonyl-4-aminophenol] | 3 to 1 μM (Class 3: 60 to 100% inhibition of melanogenesis relative to the control) | 1 |  |  |
| CCOC(=O)Nc1ccc(OC(=O)OCC)cc1 [Compound of Example 2, N-Ethyloxycarbonyl-O-ethyloxycarbonyl-4-aminophenol] |  | 50 | 3 to 200 |  |
| CC(C)CCC[C@@H](C)[C@H]1CC[C@H]2[C@@H]3CC=C4C[C@@H](OC(=O)Nc5ccc(O)cc5)CC[C@]4(C)[C@H]3CC[C@]12C [Compound of Example 3, N-Cholesteryloxycarbonyl-4-aminophenol] |  | 10 | 3 to 200 |  |
| O=c1cc(CO)occ1O [Kojic acid, reference compound] |  | 500 |  | 2 to 500 |
